pKd: −log10 of the molar value.

Results on 3 compounds are retold here after ChEMBL document CHEMBL3091292, “Towards tropomyosin-related kinase B (TrkB) receptor ligands for brain imaging with PET: radiosynthesis and evaluation of 2-(4-[(18)F]fluorophenyl)-7,8-dihydroxy-4H-chromen-4-one and 2-(4-([N-methyl-(11)C]-dimethylamino)phenyl)-7,8-dihydroxy-4H-chromen-4-one” (Bioorg Med Chem, 2013).

Series [1] has as its system Brain. The series can be described thus: Biodistribution in Sprague-Dawley rat brain assessed as drug level per body weight at 230 to 876 uCi, iv after 60 mins by PET imaging analysis. To be noted: in vivo, 1 h. The class given is ADME, organism-based.
A short description of series [2]: Octanol-phosphate buffered saline partition coefficient, log D of the compound at pH 7.4 by shake-flask method. Format: physicochemical.
Series [3] in a line: Plasma protein binding in rat after 15 mins. The class given is ADME, cell-free. To be noted: read-out: PPB (converted).
Series [4] can be described thus: Half life in rat plasma by HPLC analysis. The class given is ADME, cell-free.
The test system of series [5] is Rattus norvegicus. The series is described as follows: Biodistribution in Sprague-Dawley rat whole brain assessed as drug level per body weight at 230 to 876 uCi, iv after 30 mins by PET imaging analysis. The class given is ADME, organism-based. The conditions noted are these: in vivo, 0.5 h.
The test system of series [6] is Kidney. The series can be described thus: Biodistribution in Sprague-Dawley rat kidney assessed as drug level per body weight at 230 to 876 uCi, iv after 60 mins by PET imaging analysis. The class given is ADME, organism-based. The conditions noted are these: in vivo, 1 h.
In series [7] the test system is Liver. The series is described as follows: Biodistribution in Sprague-Dawley rat liver assessed as drug level per body weight at 230 to 876 uCi, iv after 120 mins by PET imaging analysis. Format: ADME, organism-based. The conditions noted are these: in vivo, 2 h.
The subject of series [8] is Aorta. The series can be described thus: Biodistribution in Sprague-Dawley rat aorta assessed as drug level per body weight at 230 to 876 uCi, iv after 30 mins by PET imaging analysis. The class given is ADME, organism-based. To be noted: in vivo, 0.5 h.
Series [9] has as its system Cerebellum. The series is described as follows: Biodistribution in rat cerebellum after 65 mins by autoradiography relative to control in presence of BDNF. Format: ADME, organism-based. The conditions noted are these: in vivo.
Series [10] deals with Thalamus. The series is described as follows: Biodistribution in rat thalamus after 65 mins by autoradiography relative to control in presence of BDNF. The conditions noted are these: in vivo. Format: ADME, organism-based.
Series [11] concerns Hippocampus. The series can be described thus: Biodistribution in rat hippocampus after 65 mins by autoradiography relative to control in presence of BDNF. Format: ADME, organism-based. The conditions noted are these: in vivo.
For series [12], the system named is Cortex. The series can be described thus: Biodistribution in rat cortex after 65 mins by autoradiography relative to control in presence of BDNF. Format: ADME, organism-based. The conditions noted are these: in vivo.
Series [13] deals with Striatum. The series is described as follows: Biodistribution in rat striatum after 65 mins by autoradiography relative to control in presence of BDNF. To be noted: in vivo. Format: ADME, organism-based.
The subject of series [14] is Cerebellum. The series can be described thus: Biodistribution in rat cerebellum after 65 mins by autoradiography relative to control in presence of 7,8-dihydroxyflavone. Format: ADME, organism-based. To be noted: in vivo.
The subject of series [15] is Thalamus. The series is described as follows: Biodistribution in rat thalamus after 65 mins by autoradiography relative to control in presence of 7,8-dihydroxyflavone. The class given is ADME, organism-based. The conditions noted are these: in vivo.
Series [16] has as its system Hippocampus. The series can be described thus: Biodistribution in rat hippocampus after 65 mins by autoradiography relative to control in presence of 7,8-dihydroxyflavone. Format: ADME, organism-based. To be noted: in vivo.
For series [17], the system named is Striatum. The series can be described thus: Biodistribution in rat striatum after 65 mins by autoradiography relative to control in presence of 7,8-dihydroxyflavone. Format: ADME, organism-based. To be noted: in vivo.
Series [18] relates to Cortex. The series is described as follows: Biodistribution in rat cortex after 65 mins by autoradiography relative to control in presence of 7,8-dihydroxyflavone. To be noted: in vivo. Format: ADME, organism-based.
The test system of series [19] is Cerebellum. The series can be described thus: Biodistribution in rat cerebellum after 65 mins by autoradiography. Format: ADME, organism-based. To be noted: in vivo.
Series [20] has as its system Hippocampus. The series is described as follows: Biodistribution in rat hippocampus after 65 mins by autoradiography. The class given is ADME, organism-based. The conditions noted are these: in vivo.
For series [21], the system named is Thalamus. The series is described as follows: Biodistribution in rat thalamus after 65 mins by autoradiography. The class given is ADME, organism-based. The conditions noted are these: in vivo.
The species entered for series [22] is Rattus norvegicus. The series can be described thus: Biodistribution in rat caudate putamen after 65 mins by autoradiography. Format: ADME, organism-based. The conditions noted are these: in vivo.
The subject of series [23] is Cerebral cortex. The series is described as follows: Biodistribution in rat cerebral cortex after 65 mins by autoradiography. To be noted: in vivo. The class given is ADME, organism-based.
Series [24] is described as follows: Drug degradation in rat plasma after 90 mins by HPLC analysis. Format: ADME, cell-free. To be noted: read-out: Drug degradation.
The target in series [25] is BDNF/NT-3 growth factors receptor (Homo sapiens, UniProt Q16620). The series can be described thus: Binding affinity to TrkB receptor extracellular domain (unknown origin) after 10 mins by liquid Scatchard plot analysis.
BDNF/NT-3 growth factors receptor, sequence (Q16620 whole entry, the tested form may be a part): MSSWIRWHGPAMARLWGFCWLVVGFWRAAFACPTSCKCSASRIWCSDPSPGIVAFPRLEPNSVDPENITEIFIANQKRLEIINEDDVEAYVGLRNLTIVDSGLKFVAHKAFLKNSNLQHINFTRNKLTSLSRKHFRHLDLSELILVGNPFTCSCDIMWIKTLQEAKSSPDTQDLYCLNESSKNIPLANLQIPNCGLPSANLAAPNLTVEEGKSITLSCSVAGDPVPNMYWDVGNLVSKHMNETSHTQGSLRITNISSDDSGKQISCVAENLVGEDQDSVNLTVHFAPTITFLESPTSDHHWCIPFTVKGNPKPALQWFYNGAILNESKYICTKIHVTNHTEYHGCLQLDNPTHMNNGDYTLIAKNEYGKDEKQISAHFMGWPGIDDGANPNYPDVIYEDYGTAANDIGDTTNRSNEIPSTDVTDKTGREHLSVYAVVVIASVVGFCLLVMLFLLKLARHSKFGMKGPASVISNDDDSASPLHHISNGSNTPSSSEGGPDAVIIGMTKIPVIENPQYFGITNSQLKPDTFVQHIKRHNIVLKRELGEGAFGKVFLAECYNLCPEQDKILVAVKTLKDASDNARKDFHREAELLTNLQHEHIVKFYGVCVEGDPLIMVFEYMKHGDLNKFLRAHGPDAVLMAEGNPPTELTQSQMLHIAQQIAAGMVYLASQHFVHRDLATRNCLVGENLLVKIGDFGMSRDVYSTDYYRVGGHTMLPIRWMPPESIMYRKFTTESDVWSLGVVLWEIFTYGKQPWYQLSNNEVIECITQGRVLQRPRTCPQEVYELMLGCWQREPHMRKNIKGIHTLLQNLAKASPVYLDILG

Turning to `CN([11CH3])c1ccc(-c2cc(=O)c3ccc(O)c(O)c3o2)cc1`, in series [1], the SUV came out at 0.7. The logD – broadly, lipophilicity at a set pH, counting ionised and neutral species – in series [2] is 2.8. The fraction unbound at 0.25 h in series [3] is 0.81. Besides, in series [4], the half-life (commonly the time in which the quantity being followed falls by half) turned out to be 10 min.
For the compound `O=c1cc(-c2ccc([18F])cc2)oc2c(O)c(O)ccc12`, the SUV in series [5] is 0.64; in [6] it was 4.38; in [7], 6.8; in series [8], 6.62. For the same compound, the Drug uptake turned out to be 12% in series [9]; 11% in series [10]; 10% in series [11]; 16% in series [12]; 14% in [13]; 23% in series [14]. Further, the Drug uptake in series [15] is listed as 19%; in [16] it was 18%; in series [17] it was 21%; in series [18], 17%; in [19], “Active”; in series [20], “Active”. For the same compound, the Drug uptake result in series [21], in series [22] and in series [23] was “Active” in each case. Besides, the logD in series [2] came out at 2.2. For the same compound, the fraction unbound at 0.25 h in [3] is 0.76. Also, the metabolised at 1.5 h in [24] stood at 10%.
For `O=c1cc(-c2ccccc2)oc2c(O)c(O)ccc12` [7,8-DIHYDROXYFLAVONE], the pKd (as a rule, the negative decadic logarithm of the Kd, by convention in mol/L) in series [25] is 6.49.
